Measurements reported in ChEMBL document CHEMBL1201861, “Genomics of Drug Sensitity in Cancer screening data, Wellcome Trust Sanger Institute”.

Legend:
DMS-153 = assay: cells; type: functional, cell-based, Homo sapiens; details: Homo sapiens, DMS-153
Description: SANGER: Inhibition of human DMS-153 cell growth in a cell viability assay.

EVSA-T = assay: cells; type: functional, cell-based, Homo sapiens; details: Homo sapiens, EVSA-T;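 further: growth inhibition of EVSA-T cells, read out with a cell viability assay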
Description: SANGER: Inhibition of human EVSA-T cell growth in a cell viability assay.

GDM-1 = assay: cells; type: functional, cell-based, Homo sapiens; details: Homo sapiens, GDM-1;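 further: cell viability readout used to measure growth inhibition of human GDM-1 cells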
Description: SANGER: Inhibition of human GDM-1 cell growth in a cell viability assay.

LB647-SCLC = assay: cells; type: functional, cell-based, Homo sapiens; details: Homo sapiens, LB647-SCLC;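 further: cell growth inhibition, read out by a viability assay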
Description: SANGER: Inhibition of human LB647-SCLC cell growth in a cell viability assay.

MDA-MB-134-VI = assay: cells; type: functional, cell-based, Homo sapiens; details: Homo sapiens, MDA-MB-134-VI
Description: SANGER: Inhibition of human MDA-MB-134-VI cell growth in a cell viability assay.

MHH-CALL-2 = assay: cells; type: functional, cell-based, Homo sapiens; details: Homo sapiens, MHH-CALL-2;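 further: growth inhibition of the cell line, read out in a cell viability assay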
Description: SANGER: Inhibition of human MHH-CALL-2 cell growth in a cell viability assay.

MOLT-13 = assay: cells; type: functional, cell-based, Homo sapiens; details: Homo sapiens, MOLT-13;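 further: IC50 for suppression of MOLT-13 cell growth, read out with a cell viability assay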
Description: SANGER: Inhibition of human MOLT-13 cell growth in a cell viability assay.

NCCIT = assay: SANGER: Inhibition of human NCCIT cell growth in a cell viability assay.; type: functional, cell-based; details: Homo sapiens, NCCIT
NCI-H1417 = assay: cells; type: functional, cell-based, Homo sapiens; details: Homo sapiens, NCI-H1417;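 further: human NCI-H1417 cells, growth inhibition determined with a cell viability readout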
Description: SANGER: Inhibition of human NCI-H1417 cell growth in a cell viability assay.

NCI-H187 = assay: cells; type: functional, cell-based, Homo sapiens; details: Homo sapiens, NCI-H187;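 further: growth inhibition of NCI-H187 cells, read out as cell viability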
Description: SANGER: Inhibition of human NCI-H187 cell growth in a cell viability assay.

NCI-H2141 = assay: cells; type: functional, cell-based, Homo sapiens; details: Homo sapiens, NCI-H2141;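 further: growth inhibition of human NCI-H2141 cells, read out with a cell viability assay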
Description: SANGER: Inhibition of human NCI-H2141 cell growth in a cell viability assay.

BL-41 = assay: cells; type: functional, cell-based, Homo sapiens; details: Homo sapiens, BL-41;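 further: growth inhibition of human BL-41 cells, read out with a cell viability assay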
Description: SANGER: Inhibition of human BL-41 cell growth in a cell viability assay.

YT = assay: cells; type: functional, cell-based, Homo sapiens; details: Homo sapiens, YT
Description: SANGER: Inhibition of human YT cell growth in a cell viability assay.

CHP-126 = assay: cells; type: functional, cell-based, Homo sapiens; details: Homo sapiens, CHP-126
Description: SANGER: Inhibition of human CHP-126 cell growth in a cell viability assay.

Ca9-22 = assay: cells; type: functional, cell-based, Homo sapiens; details: Homo sapiens, Ca9-22;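 further: growth inhibition of Ca9-22 cells, read out with a cell viability assay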
Description: SANGER: Inhibition of human Ca9-22 cell growth in a cell viability assay.

G-402 = assay: cells; type: functional, cell-based, Homo sapiens; details: Homo sapiens, G-402
Description: SANGER: Inhibition of human G-402 cell growth in a cell viability assay.

GP5d = assay: cells; type: functional, cell-based, Homo sapiens; details: Homo sapiens, GP5d;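 further: growth inhibition of human GP5d cells, read out with a cell viability assay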
Description: SANGER: Inhibition of human GP5d cell growth in a cell viability assay.

HCC1937 = assay: cells; type: functional, cell-based, Homo sapiens; details: Homo sapiens, HCC1937;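 further: growth inhibition measured with a cell viability read-out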
Description: SANGER: Inhibition of human HCC1937 cell growth in a cell viability assay.

HT-1080 = assay: cells; type: functional, cell-based, Homo sapiens; details: Homo sapiens, HT-1080
Description: SANGER: Inhibition of human HT-1080 cell growth in a cell viability assay.

HT1197 = assay: cells; type: functional, cell-based, Homo sapiens, HT-1197; details: Homo sapiens, HT1197
Description: SANGER: Inhibition of human HT-1197 cell growth in a cell viability assay.

HT-1376 = assay: cells; type: functional, cell-based, Homo sapiens; details: Homo sapiens, HT-1376
Description: SANGER: Inhibition of human HT-1376 cell growth in a cell viability assay.

Huh-7 = assay: cells; type: functional, cell-based, Homo sapiens; details: Homo sapiens, Huh-7;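 further: HuH-7 cell growth inhibition, read out with a cell viability assay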
Description: SANGER: Inhibition of human HuH-7 cell growth in a cell viability assay.

IGR-1 = assay: cells; type: functional, cell-based, Homo sapiens; details: Homo sapiens, IGR-1;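 further: growth inhibition of human IGR-1 cells, read out with a cell viability assay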
Description: SANGER: Inhibition of human IGR-1 cell growth in a cell viability assay.

KP-N-YN = assay: cells; type: functional, cell-based, Homo sapiens; details: Homo sapiens, KP-N-YN;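 further: growth inhibition of KP-N-YN cells, read out with a cell viability assay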
Description: SANGER: Inhibition of human KP-N-YN cell growth in a cell viability assay.

KYSE-70 cell line = assay: cells; type: functional, cell-based, Homo sapiens; details: Homo sapiens, KYSE-70;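 further: cell viability assay read-out, with IC50 expressing suppression of KYSE-70 cell growth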
Description: SANGER: Inhibition of human KYSE-70 cell growth in a cell viability assay.

LN-405 = assay: cells; type: functional, cell-based, Homo sapiens; details: Homo sapiens, LN-405
Description: SANGER: Inhibition of human LN-405 cell growth in a cell viability assay.

LU-99A = assay: cells; type: functional, cell-based, Homo sapiens; details: Homo sapiens, LU-99A;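 further: growth inhibition of LU-99A cells, read out with a cell viability assay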
Description: SANGER: Inhibition of human LU-99A cell growth in a cell viability assay.

MHH-ES-1 = assay: cells; type: functional, cell-based, Homo sapiens; details: Homo sapiens, MHH-ES-1
Description: SANGER: Inhibition of human MHH-ES-1 cell growth in a cell viability assay.

NCI-H1437 = assay: cells; type: functional, cell-based, Homo sapiens; details: Homo sapiens, NCI-H1437;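 further: growth inhibition of human NCI-H1437 cells, read out by a cell viability assay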
Description: SANGER: Inhibition of human NCI-H1437 cell growth in a cell viability assay.

NCI-H1573 = assay: cells; type: functional, cell-based, Homo sapiens; details: Homo sapiens, NCI-H1573;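 further: growth inhibition of NCI-H1573 cells, read out with a cell viability assay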
Description: SANGER: Inhibition of human NCI-H1573 cell growth in a cell viability assay.

NCI-H2228 = assay: cells; type: functional, cell-based, Homo sapiens; details: Homo sapiens, NCI-H2228;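 further: growth inhibition of human NCI-H2228 cells, read out by a cell viability assay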
Description: SANGER: Inhibition of human NCI-H2228 cell growth in a cell viability assay.

OVCAR-3 = assay: cells; type: functional, cell-based, Homo sapiens; details: Homo sapiens, OVCAR-3;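 further: growth inhibition of human OVCAR-3 cells, determined by a cell viability assay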
Description: SANGER: Inhibition of human OVCAR-3 cell growth in a cell viability assay.

SK-MEL-28 = assay: cells; type: functional, cell-based, Homo sapiens; details: Homo sapiens, SK-MEL-28;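 further: growth inhibition of human SK-MEL-28 cells, read out with a cell viability assay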
Description: SANGER: Inhibition of human SK-MEL-28 cell growth in a cell viability assay.

SK-MEL3 = assay: cells; type: functional, cell-based, Homo sapiens, SK-MEL-3; details: Homo sapiens, SK-MEL3;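 further: growth inhibition of human SK-MEL-3 cells, read out with a cell viability assay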
Description: SANGER: Inhibition of human SK-MEL-3 cell growth in a cell viability assay.

SK-OV-3 = assay: cells; type: functional, cell-based, Homo sapiens; details: Homo sapiens, SK-OV-3;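 further: growth inhibition of SK-OV-3 human cells, read out with a cell viability assay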
Description: SANGER: Inhibition of human SK-OV-3 cell growth in a cell viability assay.

SN12C = assay: cells; type: functional, cell-based, Homo sapiens; details: Homo sapiens, SN12C;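 further: growth inhibition of human SN12C cells, measured by a cell viability assay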
Description: SANGER: Inhibition of human SN12C cell growth in a cell viability assay.

SW1990 = assay: cells; type: functional, cell-based, Homo sapiens; details: Homo sapiens, SW1990
Description: SANGER: Inhibition of human SW1990 cell growth in a cell viability assay.

SW756 = assay: cells; type: functional, cell-based, Homo sapiens; details: Homo sapiens, SW756;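 further: growth inhibition of human SW756 cells, read out with a cell viability assay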
Description: SANGER: Inhibition of human SW756 cell growth in a cell viability assay.

T98G = assay: cells; type: functional, cell-based, Homo sapiens; details: Homo sapiens, T98G;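 further: growth inhibition of T98G cells, read out by a cell viability assay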
Description: SANGER: Inhibition of human T98G cell growth in a cell viability assay.

5637 = assay: cells; type: functional, cell-based, Homo sapiens; details: Homo sapiens
Description: SANGER: Inhibition of human 5637 cell growth in a cell viability assay.

639-V = assay: cells; type: functional, cell-based, Homo sapiens; details: Homo sapiens, 639-V;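 further: growth inhibition of 639-V cells, read out with a cell viability assay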
Description: SANGER: Inhibition of human 639-V cell growth in a cell viability assay.

A 172 = assay: cells; type: functional, cell-based, Homo sapiens; details: Homo sapiens, A 172;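 further: growth inhibition of A172 cells, measured with a cell viability readout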
Description: SANGER: Inhibition of human A172 cell growth in a cell viability assay.

BXPC-3 = assay: cells; type: functional, cell-based, Homo sapiens; details: Homo sapiens, BXPC-3;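 further: growth inhibition of human BxPC-3 cells, read out by a cell viability assay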
Description: SANGER: Inhibition of human BxPC-3 cell growth in a cell viability assay.

C-33-A = assay: cells; type: functional, cell-based, Homo sapiens; details: Homo sapiens, C-33-A;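 further: cell viability assay measuring growth inhibition of C-33-A cells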
Description: SANGER: Inhibition of human C-33-A cell growth in a cell viability assay.

CAKI-1 = assay: cells; type: functional, cell-based, Homo sapiens; details: Homo sapiens, CAKI-1;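 further: growth inhibition of CAKI-1 cells, measured by a cell viability assay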
Description: SANGER: Inhibition of human CAKI-1 cell growth in a cell viability assay.

UMUC3 = assay: cells; type: functional, cell-based, Homo sapiens; details: Homo sapiens, UMUC3;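 further: growth inhibition of human UM-UC-3 cells, read out with a cell viability assay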
Description: SANGER: Inhibition of human UM-UC-3 cell growth in a cell viability assay.

COc1cc2ncn(-c3cc(OCc4ccccc4C(F)(F)F)c(C(N)=O)s3)c2cc1OC [GW843682X]
IC50 (DMS-153): > 256 nM | IC50 (EVSA-T): 237 nM | IC50 (GDM-1): 50.8 nM | IC50 (LB647-SCLC): 18.9 nM | IC50 (MDA-MB-134-VI): > 256 nM | IC50 (MHH-CALL-2): > 256 nM | IC50 (MOLT-13): 12.1 nM | IC50 (NCCIT): 59.9 nM | IC50 (NCI-H1417): > 256 nM | IC50 (NCI-H187): 23.3 nM | IC50 (NCI-H2141): 159 nM | IC50 (BL-41): 10.9 nM | IC50 (YT): > 256 nM | IC50 (CHP-126): > 256 nM

CC(=O)O[C@H]1C(=O)[C@@]2(C)[C@H]([C@H](OC(=O)c3ccccc3)[C@]3(O)C[C@H](OC(=O)[C@H](O)[C@@H](NC(=O)c4ccccc4)c4ccccc4)C(C)=C1C3(C)C)[C@]1(OC(C)=O)CO[C@@H]1C[C@@H]2O [PACLITAXEL]
IC50 (DMS-153): > 102 nM | IC50 (EVSA-T): 39.2 nM | IC50 (GDM-1): > 102 nM | IC50 (LB647-SCLC): 10.5 nM | IC50 (MDA-MB-134-VI): > 102 nM | IC50 (MHH-CALL-2): 35.6 nM | IC50 (MOLT-13): 16.4 nM | IC50 (NCCIT): 17.7 nM | IC50 (NCI-H1417): > 102 nM | IC50 (NCI-H187): > 102 nM | IC50 (NCI-H2141): 81 nM | IC50 (BL-41): 9.34 nM | IC50 (YT): > 102 nM | IC50 (CHP-126): > 102 nM

COc1cc(-c2nn([C@H]3CC[C@H](N4CCN(C(C)=O)CC4)CC3)c3ncnc(N)c23)ccc1NC(=O)c1cc2ccccc2n1C
IC50 (DMS-153): > 5120 nM | IC50 (EVSA-T): > 5120 nM | IC50 (GDM-1): > 5120 nM | IC50 (LB647-SCLC): 4890 nM | IC50 (MDA-MB-134-VI): > 5120 nM | IC50 (MHH-CALL-2): > 5120 nM | IC50 (MOLT-13): > 5120 nM | IC50 (NCCIT): > 5120 nM | IC50 (NCI-H1417): > 5120 nM | IC50 (NCI-H187): > 5120 nM | IC50 (NCI-H2141): > 5120 nM | IC50 (BL-41): 1690 nM | IC50 (YT): > 5120 nM | IC50 (CHP-126): > 5120 nM

CCC/C=C/C=C/C(=O)O[C@H]1/C(=C/C(=O)OC)C[C@H]2C[C@H]([C@@H](C)O)OC(=O)C[C@H](O)C[C@@H]3C[C@H](OC(C)=O)C(C)(C)[C@](O)(C[C@@H]4C/C(=C/C(=O)OC)C[C@H](/C=C/C(C)(C)[C@]1(O)O2)O4)O3 [BRYOSTATIN 1]
IC50 (Ca9-22): > 8 nM | IC50 (DMS-153): > 8 nM | IC50 (EVSA-T): > 8 nM | IC50 (G-402): > 8 nM | IC50 (GDM-1): > 8 nM | IC50 (GP5d): > 8 nM | IC50 (HCC1937): > 8 nM | IC50 (HT-1080): > 8 nM | IC50 (HT1197): > 8 nM | IC50 (HT-1376): > 8 nM | IC50 (Huh-7): > 8 nM | IC50 (IGR-1): > 8 nM | IC50 (KP-N-YN): > 8 nM | IC50 (KYSE-70 cell line): > 8 nM | IC50 (LB647-SCLC): > 8 nM | IC50 (LN-405): > 8 nM | IC50 (LU-99A): > 8 nM | IC50 (MDA-MB-134-VI): > 8 nM | IC50 (MHH-CALL-2): > 8 nM | IC50 (MHH-ES-1): > 8 nM | IC50 (NCCIT): > 8 nM | IC50 (NCI-H1417): > 8 nM | IC50 (NCI-H1437): > 8 nM | IC50 (NCI-H1573): 2.36 nM | IC50 (NCI-H187): > 8 nM | IC50 (NCI-H2141): > 8 nM | IC50 (NCI-H2228): > 8 nM | IC50 (OVCAR-3): > 8 nM | IC50 (SK-MEL-28): > 8 nM | IC50 (SK-MEL3): > 8 nM | IC50 (SK-OV-3): > 8 nM | IC50 (SN12C): > 8 nM | IC50 (SW1990): > 8 nM | IC50 (SW756): > 8 nM | IC50 (T98G): > 8 nM | IC50 5637: > 8 nM | IC50 (639-V): > 8 nM | IC50 (A 172): > 8 nM | IC50 (BL-41): > 8 nM | IC50 (BXPC-3): > 8 nM | IC50 (C-33-A): > 8 nM | IC50 (CAKI-1): > 8 nM | IC50 (UMUC3): > 8 nM | IC50 (YT): > 8 nM | IC50 (CHP-126): > 8 nM

Oc1ccc2ccccc2c1SSc1c(O)ccc2ccccc12
IC50 (Ca9-22): 28100 nM | IC50 (DMS-153): > 32000 nM | IC50 (EVSA-T): > 32000 nM | IC50 (G-402): > 32000 nM | IC50 (GDM-1): > 32000 nM | IC50 (GP5d): > 32000 nM | IC50 (HCC1937): > 32000 nM | IC50 (HT-1080): 18600 nM | IC50 (HT1197): 10300 nM | IC50 (HT-1376): > 32000 nM | IC50 (Huh-7): > 32000 nM | IC50 (IGR-1): > 32000 nM | IC50 (KP-N-YN): > 32000 nM | IC50 (KYSE-70 cell line): > 32000 nM | IC50 (LB647-SCLC): 7300 nM | IC50 (LN-405): > 32000 nM | IC50 (LU-99A): > 32000 nM | IC50 (MDA-MB-134-VI): > 32000 nM | IC50 (MHH-CALL-2): > 32000 nM | IC50 (MHH-ES-1): > 32000 nM | IC50 (NCCIT): 29800 nM | IC50 (NCI-H1417): > 32000 nM | IC50 (NCI-H1437): > 32000 nM | IC50 (NCI-H1573): > 32000 nM | IC50 (NCI-H187): > 32000 nM | IC50 (NCI-H2141): > 32000 nM | IC50 (NCI-H2228): > 32000 nM | IC50 (OVCAR-3): > 32000 nM | IC50 (SK-MEL-28): > 32000 nM | IC50 (SK-MEL3): > 32000 nM | IC50 (SK-OV-3): > 32000 nM | IC50 (SN12C): > 32000 nM | IC50 (SW1990): > 32000 nM | IC50 (SW756): > 32000 nM | IC50 (T98G): > 32000 nM | IC50 5637: > 32000 nM | IC50 (639-V): > 32000 nM | IC50 (A 172): > 32000 nM | IC50 (BL-41): 3100 nM | IC50 (BXPC-3): > 32000 nM | IC50 (C-33-A): > 32000 nM | IC50 (CAKI-1): > 32000 nM | IC50 (UMUC3): > 32000 nM | IC50 (YT): 1390 nM | IC50 (CHP-126): 6740 nM
